IC50 and EC50 data for 23 molecules are collected here from patent US9012497B2, “Cyclohexyl carbamate compounds as active anti-cellulite ingredients” (Symrise AG, priority 2010, dated 2015).

By IC50 is commonly meant the concentration needed to halve the response being measured. By EC50 is commonly meant the concentration at which the effect is half-maximal.

The target of one test is T1, pancreatic lipase (PL) (Sus scrofa, UniProt P00591).
T1 construct: purchased Sigma-Aldrich
T1 sequence (P00591 1-450): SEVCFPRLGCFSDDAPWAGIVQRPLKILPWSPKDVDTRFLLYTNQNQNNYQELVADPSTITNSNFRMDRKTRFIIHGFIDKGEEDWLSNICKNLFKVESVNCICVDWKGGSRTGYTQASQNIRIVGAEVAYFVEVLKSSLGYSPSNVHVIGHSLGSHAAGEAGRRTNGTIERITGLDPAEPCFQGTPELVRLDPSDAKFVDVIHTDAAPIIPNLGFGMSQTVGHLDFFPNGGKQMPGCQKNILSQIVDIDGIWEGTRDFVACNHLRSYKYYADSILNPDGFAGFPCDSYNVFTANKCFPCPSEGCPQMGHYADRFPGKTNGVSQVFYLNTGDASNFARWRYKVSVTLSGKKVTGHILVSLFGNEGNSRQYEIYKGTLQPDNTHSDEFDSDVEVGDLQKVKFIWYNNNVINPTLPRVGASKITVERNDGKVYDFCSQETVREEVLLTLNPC
Put plainly: Inhibition of PL, MUF oleate hydrolysis. Format: biochemical. As to conditions: mean values of at least 2 independent tests. From the text:
(§1) Lipogenesis is perceived as the storage of triglycerides in adipocytes. The inhibition of this storage can take place by means of the inhibition of the activity of extracellular lipoprotein lipase (LPL) in that the hydrolysis of extracellular triglycerides and therefore the absorption of free fatty acids by adipocytes are reduced. As a preliminary test, the inhibition of pancreatic lipase (PL) is investigated.
PL (Sigma-Aldrich), in the presence of test substances in different use concentrations has methylumbelliferyl oleate (MUF oleate) added as a substrate. Fluorescent methylumelliferon (MUF), is produced by hydrolysis of the MUF oleate by PL and is quantified. The inhibition of the hydrolysis of the MUF oleate is a measure of the inhibition of activity of the PL.
[formula] wherein MUF test substance=MUF concentration of the wells with test substance and with PL MUF control=MUF concentration of the wells without test substance, but with PL MUF control without PL=MUF concentration of the wells without test substance and without PL
The IC50 is calculated from the inhibition of the PL [%] in a series of dilutions of tested samples. This is the concentration, at which the activity of the PL is 50% inhibited.

For test [1], the system named is 3T3-L1 cells. As to the kind of experiment: Lipolysis assay, in vitro on 3T3-L1 cells, free glycerol release. The class given is cell-based. As to conditions: Mus musculus; differentiated 3T3-L1 cells, about 20 hours of incubation; mean values from at least 2 independent tests; read-out: Stimulation of lipolysis EC50. On the procedure:
3T3-L1 cells (mouse embryonic fibroblast-like adipocyte cell line) are seeded in a 48-well plate with collagen I-coating in a concentration of 3×10^4 cells/well. The cultivation and differentiation of the cells takes place analogously to the details in Example 2 (adipogenesis assay).
Various concentrations of the test substances are applied to the cells in DMEM, with bovine serum albumen added. After about 20 hours of incubation, the quantification of free glycerol in the supernatant of the cells takes place, which is released by the cells after hydrolysis of triglycerides in the cells and is a measure of the lipolysis of the cells. The quantification of the free glycerol is carried out based on an enzymatic method with a free glycerol reagent.
The stimulation of the lipolysis in the presence of test substances is calculated according to the following equation:
[formula] wherein A test substance=absorption of the wells with test substance and with cells A test substance without cells=absorption of the wells with test substance without cells (absorption control) A control=absorption of the wells without test substance, but with cells A control without cells=absorption of the wells without test substance and without cells
The EC50 is calculated from the lipolysis stimulation [%] in a series of dilutions of tested samples. This is the concentration at which the lipolysis is 50% stimulated.

In test [2] the test system is 3T3-L1 cells. As to the kind of experiment: Adipogenesis assay (in vitro), Nile Red lipid staining. Format: cell-based. As to conditions: Mus musculus, mean values of at least 2 independent tests, read-out: Adipogenesis inhibition IC50. On the procedure: 3T3-L1 cells (mouse embryonic fibroblast-like adipocyte cell line) are seeded in a 48-well plate with collagen I-coating in a concentration of 3×10^4 cells/well. After 72 h cultivation at 37° C. and 5% CO2 in DMEM (Dulbecco's Modified Eagle Medium), enriched with 10% calf serum, various concentrations of the test substances in DMEM, enriched with 10% foetal calf serum and to which are added 1 μg/ml insulin, 0.25 μM dexamethasone and 0.5 mM IBMX (3-isobutyl-1-methylxanthine), are added and incubated for a further 48 h. A media change takes place, in that DMEM, enriched with 10% foetal calf serum and with 1 μg/ml insulin added, are applied. After renewed cultivation for 48 h, a further media change takes place, in which DMEM, enriched with 10% foetal calf serum, is applied.
After a further incubation for 72 h, the intracellularly stored lipids are quantified as a measure for the differentiation of the cells by measuring the fluorescence after staining of the lipids with the fluorescent dye Nile Red.
The inhibition of the adipogenesis in the presence of the test substances is calculated according to the following equation:
[formula] wherein RFU test substance=relative fluorescent units of the wells with test substance and with cells RFU control=relative fluorescent units of the wells without test substance, but with cells RFU control without cells=relative fluorescent units of the wells without test substance and without cells The IC50 is calculated from the adipogenesis inhibition [%] in a series of dilutions of tested samples. This is the concentration at which the adipogenesis is 50% inhibited.

The next test concerns the target T2, lipoprotein lipase (LPL) (Mus musculus, UniProt P11152).
T2 construct: endogenous in cells; host or cells: differentiated 3T3-L1 cells (mouse); heparin-released supernatant
T2 sequence (P11152 28-474): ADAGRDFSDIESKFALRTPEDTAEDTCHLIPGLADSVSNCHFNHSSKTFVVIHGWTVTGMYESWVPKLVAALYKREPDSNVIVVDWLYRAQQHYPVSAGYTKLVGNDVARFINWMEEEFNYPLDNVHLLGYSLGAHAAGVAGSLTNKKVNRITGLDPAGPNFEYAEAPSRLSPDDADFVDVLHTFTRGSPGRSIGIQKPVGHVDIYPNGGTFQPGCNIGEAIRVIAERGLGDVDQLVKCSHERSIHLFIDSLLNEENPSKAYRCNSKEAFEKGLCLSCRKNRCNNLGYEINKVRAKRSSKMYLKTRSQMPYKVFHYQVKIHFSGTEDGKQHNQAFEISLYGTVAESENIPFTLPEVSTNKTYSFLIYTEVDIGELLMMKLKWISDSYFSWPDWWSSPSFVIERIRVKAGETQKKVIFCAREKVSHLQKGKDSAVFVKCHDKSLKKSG
As to the kind of experiment: Inhibition of LPL (lipogenesis assay), MUF oleate hydrolysis. Format: biochemical. As to conditions: LPL obtained from differentiated 3T3-L1 cells; mean values of at least 2 independent tests.
Description: as §1
The results of the inhibition of the PL are used as a preliminary test and are confirmed on LPL. To obtain LPL, 3T3-L1 cells (mouse embryonic fibroblast-like adipocyte cell line) are seeded in a 6-well plate with collagen I-coating in a concentration of 3×10^5 cells/well. The cultivation and differentiation of the cells takes place analogously to the details in Example 2 (adipogenesis assay). During the differentiation LPL is increasingly expressed. The LPL is present in a membrane-bound state and is released by one hour incubation with heparin solution at 2-8° C. to the supernatant of the cells.
The LPL thus obtained, in the presence of test substances in different use concentrations, has methylumbelliferyl oleate (MUF oleate) added as the substrate. Fluorescent methylumbelliferyl (MUF) is produced by hydrolysis of the MUF oleate by LPL and is quantified. The inhibition of the hydrolysis of the MUF oleate is a measure of the inhibition of the activity of the LPL and therefore the lipogenesis.
[formula] wherein MUF test substance=MUF concentration of the wells with test substance and with LPL MUF control=MUF concentration of the wells without test substance, but with LPL MUF control without LPL=MUF concentration of the wells without test substance and without LPL
The IC50 is calculated from the inhibition of the LPL [%] in a series of dilutions of tested samples. This is the concentration at which the activity of the LPL and therefore the lipogenesis is 50% inhibited.

In turn, `CCNC(=O)OC1CC(C)CC(C)C1` (mixture of isomers) [BIO1561, Ethyl-carbamic acid 3,5-dimethyl-cyclohexyl ester] displayed an IC50 on pancreatic lipase (PL) of 400 µM.

Take `CCNC(=O)OC1CCC(C(C)C)C(C)C1` (stereo not shown) [BIO1560, Ethyl-carbamic acid 4-isopropyl-3-methyl-cyclohexyl ester]: half-maximal inhibition on pancreatic lipase (PL) (IC50) was put at 560 µM.

As to `CCNC(=O)OC1CC2CCC1(C)C2(C)C` (stereo not shown) [BIO1573, Ethyl-carbamic acid 1,7,7-trimethyl-bicyclo[2.2.1]hept-2-yl ester], the concentration for a half-maximal effect (EC50) in the test on 3T3-L1 cells [1] was determined as 350 µM.

For the molecule `CCNC(=O)OC1CCCC(C)C1C` (stereo not shown) [BIO1581, Ethyl-carbamic acid 2,3-dimethyl-cyclohexyl ester], the half-inhibitory concentration (IC50) with 3T3-L1 cells [2] turned out to be 160 µM; against pancreatic lipase (PL) it was 240 µM.

In turn, `CCNC(=O)OC1CCC(C)C(C)C1` (stereo not shown) [BIO1582, Ethyl-carbamic acid 3,4-dimethyl-cyclohexyl ester] displayed a concentration for half-maximal inhibition (IC50) on pancreatic lipase (PL) of 420 µM.

Regarding `C=C(C)C1CCC(C)CC1OC(=O)NCCCC` (stereo not shown) [BIO1615, Butyl-carbamic acid 2-isopropenyl-5-methyl-cyclohexyl ester], the IC50 in the test on 3T3-L1 cells [2] was 160 µM; on pancreatic lipase (PL), 340 µM; on lipoprotein lipase (LPL) it was 870 µM. The EC50 in the test on 3T3-L1 cells [1] turned out to be 820 µM.

Consider `CC1CCCC(OC(=O)Nc2ccccc2O)C1C` (stereo not shown) [BIO1643, (2-Hydroxy-phenyl)-carbamic acid 2,3-dimethyl-cyclohexyl ester], for which the half-inhibitory concentration (IC50) with 3T3-L1 cells [2] was 14 µM; against pancreatic lipase (PL), 420 µM.

`CC1CC(C)CC(OC(=O)Nc2ccccc2)C1` (stereo not shown) [BIO1685, Phenyl-carbamic acid 3,5-dimethyl-cyclohexyl ester]: the concentration for half-maximal inhibition (IC50) with 3T3-L1 cells [2] came out at 340 µM. Moreover, the EC50 in the test on 3T3-L1 cells [1] was 600 µM.

In the case of `COc1ccccc1NC(=O)OC1C(C)CCC(C)C1C` (stereo not shown) [BIO1701, (2-Methoxy-phenyl)-carbamic acid 2,3,6-trimethyl-cyclohexyl ester], the IC50 in the test with 3T3-L1 cells [2] came out at 110 µM; on pancreatic lipase (PL), 470 µM.

With `COc1ccccc1NC(=O)OC1CC(C)CC(C)(C)C1` (stereo not shown) [BIO1703, (2-Methoxy-phenyl)-carbamic acid 3,3,5-trimethyl-cyclohexyl ester], the IC50 with 3T3-L1 cells [2] worked out at 51 µM; against pancreatic lipase (PL) it was 1860 µM.

Consider `O=C(Nc1ccccc1)OC1CCCCC1` [BIO1741, Phenyl-carbamic acid cyclohexyl ester], for which the IC50 in the test with 3T3-L1 cells [2] is 440 µM. Moreover, in the test with 3T3-L1 cells [1], the EC50 is 360 µM.

As to `CC1CC(C)CC(OC(=O)NC2CCCCC2)C1` (stereo not shown) [BIO1743, Cyclohexyl-carbamic acid 3,5-dimethyl-cyclohexyl ester], the concentration for half-maximal inhibition (IC50) with 3T3-L1 cells [2] stood at 91 µM. Further, in the test with 3T3-L1 cells [1], the concentration for a half-maximal effect (EC50) stood at 1890 µM.

`COc1ccccc1NC(=O)OC1CCCCC1C(C)C` (stereo not shown) [BIO1744, (2-Methoxy-phenyl)-carbamic acid 2-isopropyl-cyclohexyl ester] displayed an IC50 against pancreatic lipase (PL) of 230 µM.

With `CC1CC(C)CC(OC(=O)NCc2ccccc2)C1` (stereo not shown) [BIO1745, Benzyl-carbamic acid 3,5-dimethyl-cyclohexyl ester], the IC50 in the test on 3T3-L1 cells [2] is 120 µM; at pancreatic lipase (PL), 130 µM.

Regarding `CC(C)(C)C1CCC(OC(=O)NC2CCCCC2)CC1` (stereo not shown) [BIO1747, Cyclohexyl-carbamic acid 4-tert-butyl-cyclohexyl ester], the IC50 with 3T3-L1 cells [2] turned out to be 120 µM. The EC50 in the test with 3T3-L1 cells [1] worked out at 610 µM.

As for `CC(C)C1CCCCC1OC(=O)NCc1ccccc1` (stereo not shown) [BIO1748, Benzyl-carbamic acid 2-isopropyl-cyclohexyl ester], the IC50 in the test with 3T3-L1 cells [2] is 59 µM; at pancreatic lipase (PL), 2170 µM. In the test on 3T3-L1 cells [1], the concentration giving a half-maximal response (EC50) was 810 µM.

Regarding `CCCCNC(=O)OC1CCCC(C)C1` (stereo not shown) [BIO1821, Butyl-carbamic acid 3-methyl-cyclohexyl ester], at pancreatic lipase (PL), the 50% inhibitory concentration (IC50) was 510 µM.

For `Cc1ccc(NC(=O)OC2CC(C)CC(C)C2)cc1` (stereo not shown) [BIO1822, p-Tolyl-carbamic acid 3,5-dimethyl-cyclohexyl ester], the IC50 with 3T3-L1 cells [2] came out at 170 µM.

On to `Cc1ccc(NC(=O)OC2CCCCC2C(C)C)cc1` (stereo not shown) [BIO1824, p-Tolyl-carbamic acid 2-isopropyl-cyclohexyl ester], for which the half-maximal inhibitory concentration (IC50) with 3T3-L1 cells [2] was determined as 92 µM. Also, in the test on 3T3-L1 cells [1], the EC50 was determined as 510 µM.

With `CCCCNC(=O)OC1CC(C)CC(C)C1` (stereo not shown) [BIO1840, Butyl-carbamic acid 3,5-dimethyl-cyclohexyl ester], the half-inhibitory concentration (IC50) in the test with 3T3-L1 cells [2] is 160 µM; against pancreatic lipase (PL), 550 µM. For the same molecule, in the test with 3T3-L1 cells [1], the EC50 was found to be 700 µM.

In the case of `CCCCNC(=O)OC1CCCC(C)C1C` (stereo not shown) [BIO1842, Butyl-carbamic acid 2,3-dimethyl-cyclohexyl ester], the IC50 amounted to 150 µM with 3T3-L1 cells [2] and 670 µM at pancreatic lipase (PL). Besides, the half-maximal effective concentration (EC50) in the test on 3T3-L1 cells [1] came to 230 µM.

On to `CCCCCCNC(=O)OC1CC(C)CC(C)(C)C1` (stereo not shown) [BIO1850, Hexyl-carbamic acid 3,3,5-trimethyl-cyclohexyl ester], for which the IC50 in the test on 3T3-L1 cells [2] is 360 µM; against pancreatic lipase (PL) it was 520 µM; against lipoprotein lipase (LPL) it was 680 µM.

Consider `CCCCCCNC(=O)OC1CCCCC1C(C)C` (stereo not shown) [BIO1851, Hexyl-carbamic acid 2-isopropyl-cyclohexyl ester], for which the IC50 with 3T3-L1 cells [2] was found to be 86 µM; on pancreatic lipase (PL) it was 1240 µM. Further, the concentration for a half-maximal effect (EC50) in the test on 3T3-L1 cells [1] was 1170 µM.
